According to ChEMBL document CHEMBL1201862, “PubChem BioAssay data set” (2004):
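Protocol summary: plate cells (96-well), add compound at 5 concentrations, incubate 48 h, interpolate endpoints linearly. GI50 is the concentration that inhibits growth by half.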 Activity calls are given as the source filed them. No stated cut-off is given here; in the data, active = GI50 up to about 1.1 µM and inactive = higher.

How the values were obtained:
Experiment in all cases: NCI tumour cell line growth inhibition, 48 h
OVCAR-3 = tested on: OVCAR-3
HL-60 = tested on: HL-60
SNB-19 = tested on: SNB-19
LOX IMVI = tested on: LOX IMVI
A549 = tested on: A549
Malme-3M = tested on: Malme-3M
SK-MEL-5 = tested on: SK-MEL-5
RPMI-8226 = tested on: RPMI-8226
OVCAR-4 = tested on: OVCAR-4
HOP-92 = tested on: HOP-92
COLO 205 = tested on: COLO 205
UACC-257 = tested on: UACC-257
MCF7 = tested on: MCF7
SNB-75 = tested on: SNB-75
NCI-H460 = tested on: NCI-H460
SF-295 = tested on: SF-295
CCRF-CEM = tested on: CCRF-CEM
UO-31 = tested on: UO-31
SN12C = tested on: SN12C
NCI-H226 = tested on: NCI-H226
KM12 = tested on: KM12
CAKI-1 = tested on: CAKI-1
PC-3 = tested on: PC-3
NCI/ADR-RES = tested on: NCI/ADR-RES
UACC-62 = tested on: UACC-62
MDA-MB-435 = tested on: MDA-MB-435
ACHN = tested on: ACHN
HCC 2998 = tested on: HCC 2998
SR = tested on: SR
SF-539 = tested on: SF-539
T47D = tested on: T47D
OVCAR-5 = tested on: OVCAR-5
SK-MEL-28 = tested on: SK-MEL-28
Hs-578T = tested on: Hs-578T
NCI-H522 = tested on: NCI-H522
MDA-MB-231 = tested on: MDA-MB-231
SK-OV-3 = tested on: SK-OV-3
EKVX = tested on: EKVX
HT-29 = tested on: HT-29
HCT-116 = tested on: HCT-116
A498 = tested on: A498
786-0 = tested on: 786-0
HOP-62 = tested on: HOP-62
OVCAR-8 = tested on: OVCAR-8
K562 = tested on: K562
SW-620 = tested on: SW-620
U-251 = tested on: U-251
HCT-15 = tested on: HCT-15
MOLT-4 = tested on: MOLT-4
M14 = tested on: M14
BT-549 = tested on: BT-549
IGROV-1 = tested on: IGROV-1
SK-MEL-2 = tested on: SK-MEL-2
SF-268 = tested on: SF-268
NCI-H23 = tested on: NCI-H23
DU-145 = tested on: DU-145
TK-10 = tested on: TK-10
RXF 393 = tested on: RXF 393

SMILES: Brc1cccc(Nc2nc(-c3cccs3)nc3ccc(Br)cc23)c1
- GI50 (OVCAR-3): 16.1 µM (inactive)
- GI50 (HL-60): 1.28 µM (inactive)
- GI50 (SNB-19): 31.1 µM (inactive)
- GI50 (LOX IMVI): 31.3 µM (inactive)
- GI50 (A549): 29.5 µM (inactive)
- GI50 (Malme-3M): 25.4 µM (inactive)
- GI50 (SK-MEL-5): 14 µM (inactive)
- GI50 (RPMI-8226): 44.9 µM (inactive)
- GI50 (OVCAR-4): 27.8 µM (inactive)
- GI50 (HOP-92): 19.6 µM (inactive)
- GI50 (COLO 205): 33 µM (inactive)
- GI50 (UACC-257): 26.6 µM (inactive)
- GI50 (MCF7): 14.2 µM (inactive)
- GI50 (SNB-75): 41.2 µM (inactive)
- GI50 (NCI-H460): 21.7 µM (inactive)
- GI50 (SF-295): 19.9 µM (inactive)
- GI50 (CCRF-CEM): 1.51 µM (inactive)
- GI50 (UO-31): 47 µM (inactive)
- GI50 (SN12C): 22.7 µM (inactive)
- GI50 (NCI-H226): 31.4 µM (inactive)
- GI50 (KM12): 18 µM (inactive)
- GI50 (CAKI-1): 23.1 µM (inactive)
- GI50 (PC-3): 31.9 µM (inactive)
- GI50 (NCI/ADR-RES): 30.7 µM (inactive)
- GI50 (UACC-62): 17.8 µM (inactive)
- GI50 (MDA-MB-435): 16.6 µM (inactive)
- GI50 (ACHN): 27.7 µM (inactive)
- GI50 (HCC 2998): 20.2 µM (inactive)
- GI50 (SR): 1.48 µM (inactive)
- GI50 (SF-539): 31.8 µM (inactive)
- GI50 (T47D): 9.89 µM (inactive)
- GI50 (OVCAR-5): 25.2 µM (inactive)
- GI50 (SK-MEL-28): 25.2 µM (inactive)
- GI50 (Hs-578T): 38.8 µM (inactive)
- GI50 (NCI-H522): 19 µM (inactive)
- GI50 (MDA-MB-231): 20.7 µM (inactive)
- GI50 (SK-OV-3): > 100 µM (inactive)
- GI50 (EKVX): 15 µM (inactive)
- GI50 (HT-29): 17.1 µM (inactive)
- GI50 (HCT-116): 30.5 µM (inactive)
- GI50 (A498): 31.7 µM (inactive)
- GI50 (786-0): 28.2 µM (inactive)
- GI50 (HOP-62): 32.1 µM (inactive)
- GI50 (OVCAR-8): 47 µM (inactive)
- GI50 (K562): 38.2 µM (inactive)
- GI50 (SW-620): 26.9 µM (inactive)
- GI50 (U-251): 31.5 µM (inactive)
- GI50 (HCT-15): 26.5 µM
- GI50 (MOLT-4): 26.6 µM (inactive)
- GI50 (M14): 25.5 µM (inactive)
- GI50 (BT-549): 80.9 µM (inactive)
- GI50 (IGROV-1): 26.7 µM (inactive)
- GI50 (SK-MEL-2): 32.1 µM (inactive)
- GI50 (SF-268): 26.3 µM (inactive)
- GI50 (NCI-H23): 36.9 µM (inactive)
- GI50 (DU-145): 36.1 µM (inactive)
- GI50 (TK-10): 24.7 µM (inactive)

SMILES: C(/C=N/c1ccccc1)=C(/Nc1ccccc1)c1ccc2ccccc2c1
- GI50 (OVCAR-3): 1.46 µM (inactive)
- GI50 (HL-60): 1.5 µM (inactive)
- GI50 (SNB-19): 2.29 µM (inactive)
- GI50 (LOX IMVI): 1.53 µM (inactive)
- GI50 (A549): 4.08 µM (inactive)
- GI50 (Malme-3M): 1.78 µM (inactive)
- GI50 (SK-MEL-5): 2.63 µM (inactive)
- GI50 (RPMI-8226): 1.79 µM (inactive)
- GI50 (OVCAR-4): 1.99 µM (inactive)
- GI50 (HOP-92): 9.62 µM (inactive)
- GI50 (COLO 205): 1.85 µM (inactive)
- GI50 (UACC-257): 4.55 µM (inactive)
- GI50 (MCF7): 3.18 µM (inactive)
- GI50 (SNB-75): 1.64 µM (inactive)
- GI50 (NCI-H460): 2.81 µM (inactive)
- GI50 (SF-295): 1.47 µM (inactive)
- GI50 (CCRF-CEM): 1.1 µM (active)
- GI50 (UO-31): 3.13 µM (inactive)
- GI50 (SN12C): 1.6 µM (inactive)
- GI50 (NCI-H226): 1.77 µM (inactive)
- GI50 (KM12): 1.78 µM (inactive)
- GI50 (CAKI-1): 0.667 µM (active)
- GI50 (PC-3): 1.55 µM (inactive)
- GI50 (NCI/ADR-RES): 1.5 µM (inactive)
- GI50 (UACC-62): 0.548 µM (active)
- GI50 (MDA-MB-435): 0.299 µM (active)
- GI50 (ACHN): 2.39 µM (inactive)
- GI50 (SR): 0.676 µM (active)
- GI50 (SF-539): 1.83 µM (inactive)
- GI50 (T47D): 2.36 µM (inactive)
- GI50 (OVCAR-5): 2.51 µM (inactive)
- GI50 (SK-MEL-28): 0.231 µM (active)
- GI50 (Hs-578T): 2.58 µM (inactive)
- GI50 (NCI-H522): 3.87 µM (inactive)
- GI50 (MDA-MB-231): 1.29 µM (inactive)
- GI50 (SK-OV-3): 2.76 µM (inactive)
- GI50 (HT-29): 1.77 µM (inactive)
- GI50 (HCT-116): 1.87 µM (inactive)
- GI50 (A498): 12.4 µM (inactive)
- GI50 (786-0): 2.45 µM (inactive)
- GI50 (HOP-62): 1.82 µM (inactive)
- GI50 (OVCAR-8): 3.61 µM (inactive)
- GI50 (K562): 0.897 µM (active)
- GI50 (SW-620): 3.88 µM (inactive)
- GI50 (U-251): 2.65 µM (inactive)
- GI50 (RXF 393): 1.66 µM (inactive)
- GI50 (HCT-15): 1.06 µM
- GI50 (MOLT-4): 1 µM (active)
- GI50 (M14): 1.87 µM (inactive)
- GI50 (BT-549): 1.08 µM (active)
- GI50 (IGROV-1): 2.88 µM (inactive)
- GI50 (SK-MEL-2): 5.55 µM (inactive)
- GI50 (SF-268): 4.71 µM (inactive)
- GI50 (NCI-H23): 2.13 µM (inactive)
- GI50 (DU-145): 2.02 µM (inactive)
- GI50 (TK-10): 1.45 µM (inactive)
